What was measured:
Assay type in all cases: cell-based
[1] = tested on: MDA-MB-231; assay: MTT cytotoxic activity against breast MDA-MB-231 cancer cell line; conditions: Homo sapiens, MDA-MB-231; MTT assay, 24 h treatment
From the text: (§1) All the synthesised compounds were screened for their cytotoxic activity against breast MDA-MB-231 cancer cell line and compounds 6 and 12 against breast MCF-10A cell line taking CA-4 as a positive control for the analysis. The in vitro cytotoxicity results of the prepared compounds were systematised in Table 1. […] Structurally, the prepared molecules contain three structural variations; including rotatable hydrazide derivatives, the core exchange with imidazolone ring, and the ring expansion with triazinone motif. […] It is noticed that directly attached benzene ring to triazinone scaffold (compound 6) or bioisosteric group (thiazolyl ester) as in compound 12, may contribute to the astonishing cytotoxicity against breast MDA-MB-231 cancer cells.
To measure the cytotoxic activity of the synthesised derivatives 2a–13e in breast cancer (MDA-MB-231) cell line. MTT assay method was applied to assess cell viability assay. All experimental steps were conducted as reported earlier.
(§2) Part I: Biological Studies
(§3) 4.3. Biological evaluation
(§4) 4.3.1. Cytotoxic activity evaluation
(§5) The cytotoxic actvity of the synthesized derivatives 2a-13e was measured in MDA-MB-231 breast cancer cell line and derivatives 6 and 12 in MCF-10A […].
(§6) Cell viability assay was assessed using MTT assay method. Cells at density of 1 x 104 were seeded in a 96-well plate at 37 °C for 24 h under 5% CO2. After incubation, the cells were treated with different concentrations of the test schiff bases 2a-13e and incubated for 24 h, then 20 µl of MTT solution at 5 mg/mL was applied and incubated for 4 h at 37 °C.
Dimethyl sulphoxide (DMSO) in volume of 100 µl was added to each well to dissolve the purple formazan that had formed. The color intensity of the formazan product, which represents the growth condition of the cells, is quantified by using an ELISA plate reader (EXL 800, USA) at 570 nm absorbance. The experimental conditions were carried out with at least three replicates, and the experiments were repeated at least three times. […]

[2] = tested on: MCF-10A; assay: MTT cytotoxic activity against breast MCF-10A cell line; conditions: Homo sapiens, MCF-10A; MTT assay, 24 h treatment
From the text: as §1, §2, §3, §4, §5, §6
Dimethyl sulphoxide (DMSO) in volume of 100 µl was added to each well to dissolve the purple formazan that had formed. The color intensity of the formazan product, which represents the growth condition of the cells, is quantified by using an ELISA plate reader (EXL 800, USA) at 570 nm absorbance. […]
(§7) Compounds 6, 12 and CA-4 were evaluated for their tubulin inhibitory activity according to manufacturer’s instructions using # abcam Human Beta-tubulin simplestep ELISA Kit ab245722. MDA-MB-231 cells were trypsinized, counted and seeded at the 2 × 105 into 96-well micro titer plates. […]
(§8) (O.D.) was measured at 450±10 nm using microplate reader (Spectromax Plus 96 well plate […]

[3] = tested on: β-tubulin; assay: β-tubulin polymerisation inhibition assay (Human Beta-tubulin ELISA kit) on MDA-MB-231 cells; conditions: MDA-MB-231 cell line, each compound at its IC50 concentration
Description: Trimethoxy phenyl fragment-containing natural stilbenoid-derived molecules, such as Colchicine and CA-4 bind to β-tubulin subunit at the colchicine binding site resulting in inhibition of microtubule assembly and suppression of its formation. […] From the obtained results it can be concluded that the antiproliferative activity of the synthesised triazinone-linked CA-4 derivatives may be derived from the inhibition of microtubule assembly.
Triazinone derivatives 6 and 12 were assessed for their tubulin inhibitory activity according to manufacturer’s instructions using # abcam Human Beta-tubulin simple step ELISA Kit ab245722.
as §2, §3, §4, §5, §6
Dimethyl sulphoxide (DMSO) in volume of 100 µl was added to each well to dissolve the purple formazan that had formed. The color intensity of the formazan product, which represents the growth condition of the cells, is quantified by using an ELISA plate reader (EXL 800, USA) at 570 nm absorbance. The experimental conditions were carried out with at least three replicates, and the experiments were repeated at least three times.
4.3.2. Tubulin inhibitions Assay
as §7, §8

Structure (SMILES): COc1ccc(/C=C\c2cc(OC)c(OC)c(OC)c2)cc1O [CA-4, Combretastatin-A4, reference compound]
- IC50 [1]: 0.55 ± 0.09 µM
- IC50 [2]: 8.91 ± 0.71 µM
- % Inhibition of β-tubulin polymerisation [3]: 87.05 ± 0.08%

— paper PMC9518609, “Design and synthesis of new trimethoxylphenyl-linked combretastatin analogues loaded on diamond nanoparticles as a panel for ameliorated solubility and antiproliferative activity” (Journal of Enzyme Inhibition and Medicinal Chemistry, 2022)
